Where two headings read alike, the source gives them in different places.
Experiments:
Assay type in all cases: physicochemical
[1] = Form stability under 97% relative humidity; settings: for Crystalline form, storage time 5 days: 97% RH environment; for Crystalline form, storage time 0 day: 0 day (start)
Procedure: The known ozanimod of Preparation Example 1 and ozanimod Form 3 of Example 19 were compared in their form stability under 97% relative humidity. The procedures are detailed as follows: placed about 20 mg of the above two samples respectively at 97% RH environment, and studied their crystalline form stability.

[2] = Form stability test at 50° C.; settings: for Crystalline form, storage time 0 day / Form stability after having been placed at 50° C. for 1 day: 50° C.; for Crystalline form, storage time 0 day: 0 day (start); for Crystalline form, storage time 5 days: placed at 50° C.
Procedure: The known ozanimod solid of Preparation Example 1 and ozanimod Form 1 of Example 1 were tested in form stability test. The procedures are detailed as follows: placed about 20 mg of the above two samples respectively at 50° C., and studied their form stability.

[3] = Storage at room temperature in desiccators with relative humidity ranging from 10% to 90%; settings: relative humidity 10% to 90%
[4] = Form stability in water (stirred in water)
Procedure: The form stability in water of the known ozanimod of Preparation Example 1 and ozanimod Form 2 of Example 10 were compared. The procedures are detailed as follows: took about 20 mg of the above two samples respectively, stirred in water, and studied the form stability.

[5] = listed as known amorphous form of ozanimod

| Structure (SMILES) | Crystalline form, storage time 5 days [1] | Crystalline form, storage time 0 day ([1]; 97% RH) | Form stability after storage at 97% RH for 10 days ([1]; 97% RH, 10 days) | Form stability at room temperature and 97% relative humidity for 3 days [1] | Crystalline form, storage time 0 day [2] | Form stability after having been placed at 50° C. for 1 day [2] | Crystalline form, storage time 5 days [2] | Crystalline form, storage time 5 days ([2]; listed as ozanimod Form 1) | Appearance, XRPD and melting point after 4 months storage [3] | Form stability after having been placed at 50° C. for 1 day [2, 5] | Crystalline form after stirred in water for 3 days [4] | Crystalline form after stirred in water for 3 days [4, 5] | Form stability at room temperature and 97% relative humidity for 3 days [1, 5] | Crystalline form after stirred in water for 3 days ([4]; listed as Form 2) | Crystalline form after stirred in water for 3 days ([4]; listed as ozanimod Form 2) |
| --- | --- | --- | --- | --- | --- | --- | --- | --- | --- | --- | --- | --- | --- | --- | --- |
| CC(C)Oc1ccc(-c2nc(-c3cccc4c3CC[C@@H]4NCCO)no2)cc1C#N [Ozanimod Form 3, 5-[3-[(1S)-2,3-dihydro-1-(2-hydroxyethylamino)-1H-inden-4-yl]-1,2,4-oxadiazol-5-yl]-2-isopropoxybenzonitrile] | Remained Form 3 | Form 3 | remained unchanged | remained unchanged | – | – | – | – | – | – | – | – | – | – | – |
| CC(C)Oc1ccc(-c2nc(-c3cccc4c3CC[C@@H]4NCCO)no2)cc1C#N [Ozanimod Form 1, 5-[3-[(1S)-2,3-dihydro-1-(2-hydroxyethylamino)-1H-inden-4-yl]-1,2,4-oxadiazol-5-yl]-2-isopropoxybenzonitrile] | – | – | – | – | Form 1 | remained unchanged | Remained Form 1 | more stable | remained unchanged | – | – | – | – | – | – |
| CC(C)Oc1ccc(-c2nc(-c3cccc4c3CC[C@@H]4NCCO)no2)cc1C#N [The known ozanimod, 5-[3-[(1S)-2,3-dihydro-1-(2-hydroxyethylamino)-1H-inden-4-yl]-1,2,4-oxadiazol-5-yl]-2-isopropoxybenzonitrile, reference compound] | Weak diffraction | Amorphous | – | – | Amorphous | – | Weak diffraction | – | – | showed diffraction peaks | Transformed to Form 2 | turned to Form 2 | turned to Form 3 | – | – |
| CC(C)Oc1ccc(-c2nc(-c3cccc4c3CC[C@@H]4NCCO)no2)cc1C#N [Ozanimod Form 2, 5-[3-[(1S)-2,3-dihydro-1-(2-hydroxyethylamino)-1H-inden-4-yl]-1,2,4-oxadiazol-5-yl]-2-isopropoxybenzonitrile] | – | – | – | – | – | – | – | – | remained unchanged | – | Remained Form 2 | – | – | remained unchanged | remained unchanged |

From patent US11117875B2, “Crystalline forms, preparation methods and pharmaceutical compositions of ozanimod” (Hangzhou SoliPharma Co., Ltd., priority 2016, dated 2021)
